# Experimental data: patent US10258613B2, “Compositions for treating retinal degeneration and methods of production and use thereof” (The Board of Regents of the University of Oklahoma, priority 2014, dated 2019)
# “Also recorded” adds a separate entry of the source.
# Key:
# Weri RB-1 cell line = assay: M-opsin and S-opsin expression (quantitative RT-PCR) after T3 with or without TR antagonists; assay type: cell-based; settings: Weri cells; for inhibition of T3-induced M-opsin expression / inhibition of the effects of T3 treatment on M-opsin and S-opsin expression: dose-dependent pattern
# Protocol: (§1) The cone precursor Weri RB-1 cell line was used to determine the antagonistic activity of the TR antagonists, NH-3 and 1-850. Expression levels of M-opsin and S-opsin in Weri cells following T3 treatment in the presence and absence of TR antagonists were analyzed by quantitative RT-PCR. […] NH-3, 1-850, or vehicle was delivered to the eye by intravitreal injection at postnatal day 5 (P5), and retinas and eyes were collected on P24. Cone survival was evaluated by examining cone density on retinal whole mounts and retinal sections by immunohistochemical approaches.
# cones in Rpe65−/− mice = assay: Cone density after intravitreal injection of TR antagonists; assay type: in vivo, mouse; settings: for cone death, in words: intravitreal delivery; for cone density increase: intravitreal injection at P5 (1.0 μl of 5 mM NH-3 or 10 mM 1-850), collected P24; for cone protection, in words: intravitreal injection at P5, P24, PNA staining
# Protocol: The cornea and lens were then removed, and the eyes were fixed in 4% PFA in PBS (vol/vol) at room temperature for another 4-6 hours. […] Paraffin sections (5 μm thickness) passing vertically through the retina (along the vertical meridian passing through the optic nerve head) were prepared using a Leica microtome.
# Briefly, retinal whole mounts or sections were blocked in Hank's balanced salt solution containing 5% bovine serum albumin (BSA) and 0.5% Triton-X 100 for 1 hour at room temperature. Primary antibody incubation (anti-M-opsin, 1:500; anti-S-opsin, 1:500; anti-CAR, 1:500; and anti-GNAT2, 1:500) was performed at room temperature for 1 hour. […] PNA immunohistochemistry was performed using biotinylated PNA (1:50) and streptavidin-FITC (1:200). […] For retinal whole mounts, images were taken using a 40× objective on an Olympus microscope, approximately 1.0 mm from the optic nerve in the center of each quadrant (FIG. 1). […] Cone density on retinal cross section was evaluated by counting the number of cones present in the dorsal and ventral areas. The averages of the counts were analyzed and graphed using GraphPad Prism software (GraphPad Software, San Diego, Calif.).
# as §1
# [1] = system: rod photoreceptors in Cngb3−/− mice; assay: Retinal morphometric analysis (ONL nuclei count, ONL thickness) after T3 treatment; assay type: in vivo, mouse
# Protocol: (§2) For anti-thyroid treatment, mother Rpe65^−/− and cpfl1 mice were treated with methimazole (MMI) (Sigma-Aldrich, St. Louis, Mo., 0.05% wt/vol) and sodium perchlorate monohydrate (PM) (Sigma-Aldrich, 1.0% wt/vol) in drinking water, beginning on the day they delivered pups and the treatment (for both mother and pups) continued for 30 days. In a separate experiment, post-weaning cpfl1 mice received MMI and PM treatment for 30 days, beginning on P25. For T3 treatment, Cngb3^−/− and Gucy2e^−/− mice received T3 (Sigma-Aldrich, 0.1 μg/g body weight, subcutaneous injection once each day) or vehicle (saline) for 30 days, beginning on P1. At the end of the treatments, blood samples were collected for measurements of serum T3 levels, and eyes and retinas were collected for evaluating cone density and cone specific protein/mRNA expression. For T3-treated mice, blood samples were collected around 24 hours after the last injection.
# (§3) Mouse retinal whole mounts or cross sections were prepared for immunohistochemical analysis as described previously (Ding et al., 2009; and Xu et al., 2011). […] The cornea and lens were then removed, and the eyes were fixed in 4% PFA in PBS (vol/vol) at room temperature for another 4-6 hours. […] Paraffin sections (5 μm thickness) passing vertically through the retina (along the vertical meridian passing through the optic nerve head) were prepared using a Leica microtome.
# (§4) Retina cross sections labeled with DAPI (Vector Laboratory Inc., Burlingame, Calif.) were used for morphometric analysis to evaluate outer nuclear layer (ONL) integrity/rod survival as described previously (Xu et al., 2012). In each hemisphere, the number of nuclei in the ONL and the thickness of the ONL were measured at 0.24 mm intervals in nine defined areas, starting at the optic nerve head and extending along the vertical meridian toward the dorsal and ventral ora serrata. The mean number of nuclei and ONL thickness at the dorsal and ventral locations was then calculated. In each experimental group, two-three sections from each of the retinas of three-four mice were measured. The averages of the measurements in each location were plotted, and the measurements in each hemisphere were analyzed and graphed using GraphPad Prism software (GraphPad Software, San Diego, Calif.).
# [2] = system: rod photoreceptors in Gucy2e−/− mice; assay: as above; assay type: in vivo, mouse
# Protocol: as §2, §3, §4
# cones in Cngb3−/− mice = assay: Cone density by immunofluorescence labeling after T3 treatment; assay type: in vivo, mouse
# Protocol: as §2, §3
# (§5) Immunohistochemical labeling of cones using antibodies against peanut agglutinin (PNA), cone opsin, cone arrestin (CAR), and guanine nucleotide-binding protein G(t) subunit alpha-2 (GNAT2) was performed as described previously (Ding et al., 2009). Briefly, retinal whole mounts or sections were blocked in Hank's balanced salt solution containing 5% bovine serum albumin (BSA) and 0.5% Triton-X 100 for 1 hour at room temperature. Primary antibody incubation (anti-M-opsin, 1:500; anti-S-opsin, 1:500; anti-CAR, 1:500; and anti-GNAT2, 1:500) was performed at room temperature for 1 hour. Following ALEXA FLUOR®-488 or -568 (Molecular Probes, Inc., Eugene, Oreg.) or FITC-conjugated secondary antibody incubation and rinses, slides were mounted and cover-slipped. PNA immunohistochemistry was performed using biotinylated PNA (1:50) and streptavidin-FITC (1:200). Fluorescent signals were imaged using an Olympus AX70 fluorescence microscope (Olympus Corp., Center Valley, Pa.) with QCapture imaging software (QImaging Corp., Surrey, BC, Canada) or an Olympus IX81-FV500 confocal laser scanning microscope (Olympus, Melville, N.Y.) (using excitation wavelengths of 543 nm for ALEXA FLUOR®-568 and 488 nm for FITC) and FLUOVIEW® imaging software (Olympus, Melville, N.Y.). Evaluation of cone density on retinal whole mounts and retinal cross-sections was performed as described previously (Xu et al., 2011; and Komeima et al., 2006). For retinal whole mounts, images were taken using a 40× objective on an Olympus microscope, approximately 1.0 mm from the optic nerve in the center of each quadrant (FIG. 1). Image scale was calibrated and cones were counted in four regions, each with dimensions of 317 μm×317 μm, using ImageJ software (ImageJ software website from National Institutes of Health, Bethesda, Md.). Cone density on retinal cross section was evaluated by counting the number of cones present in the dorsal and ventral areas. The averages of the counts were analyzed and graphed using GraphPad Prism software (GraphPad Software, San Diego, Calif.).
# cones in Gucy2e−/− mice = assay: as above; assay type: in vivo, mouse
# Protocol: as §2, §3, §5
# [3] = Serum T3 levels by mouse/rat T3 ELISA in anti-thyroid- or T3-treated mice; assay type: in vivo; settings: for increase of serum T3 levels compared with untreated controls: around 24 hours after last injection; for concentration at 24 h: mouse, serum, sc, 0.1 μg/g body weight, T3 0.1 μg/g s.c. once each day 30 days from P1, around 24 hours after last injection
# Protocol: as §2
# Serum triiodothyronine (T3) levels were analyzed using a mouse/rat T3 ELISA kit (Calbiotech Inc., Spring Valley, Calif.) with a total T3 detection limit at 0.25 ng/ml. Briefly, 25 μl of serum samples and standards with different T3 concentrations were added into the assigned wells, the assays were performed by following the manufacturer's instructions, and the absorbance of each well was read at 450 nm (SPECTRAMAX® 190 Microplate Spectrophotometer, Molecular Devices LLC, Sunnyvale, Calif.). The standard curve was generated by using a three-parameter exponential non-linear regression in SIGMAPLOT® software (Systat Software, Inc., San Jose, Calif.), and the sample T3 concentration was then calculated according to the three-parameter exponential equation.
# cones = settings: mice; effect reversed by deletion of TRβ2 gene; cited from earlier work
# [4] = T3 0.1 μg/g s.c. daily 30 days from P1
smiles,measurement,setting,value
O=C(C=C1CCN(c2ccc([N+](=O)[O-])cc2)CC1)NNC(=O)Nc1cccc(C(F)(F)F)c1 [1-850],inhibition of T3-induced M-opsin expression,Weri RB-1 cell line,inhibited T3-induced M-opsin expression
same,inhibition of the effects of T3 treatment on M-opsin and S-opsin expression,Weri RB-1 cell line,inhibited
same,"cone death, in words",cones in Rpe65−/− mice,reduced cone death
same,cone density increase,cones in Rpe65−/− mice,about 35%
same,"cone protection, in words",cones in Rpe65−/− mice,protected cones
Cc1cc(OCC(=O)O)cc(C)c1Cc1cc(C#Cc2ccc([N+](=O)[O-])cc2)c(O)c(C(C)C)c1 [NH-3],inhibition of T3-induced M-opsin expression,Weri RB-1 cell line,inhibited T3-induced M-opsin expression
same,inhibition of the effects of T3 treatment on M-opsin and S-opsin expression,Weri RB-1 cell line,inhibited
same,"cone death, in words",cones in Rpe65−/− mice,reduced cone death
same,cone density increase,cones in Rpe65−/− mice,about 35%
same,"cone protection, in words",cones in Rpe65−/− mice,protected cones
"N[C@@H](Cc1cc(I)c(Oc2ccc(O)c(I)c2)c(I)c1)C(=O)O [T3, Triiodothyronine]",reduction of average number of nuclei in the ONL vs untreated controls,[1]; T3 30 days,about 30%
same,"rod photoreceptor viability, in words",[1]; T3 30 days from P1,causes rod degeneration
same,reduction of average number of nuclei in the ONL vs untreated controls,[2]; T3 30 days,about 30%
same,"rod photoreceptor viability, in words",[2]; T3 30 days from P1,causes rod degeneration
same,M-opsin expression,Weri RB-1 cell line; T3 treatment,increased M-opsin expression
same,S-opsin expression,Weri RB-1 cell line; T3 treatment,decreased S-opsin expression
same,reduction of CAR-labeled cones vs untreated,cones in Cngb3−/− mice; [4],about 40%
same,reduction of PNA-labeled cones vs untreated,cones in Cngb3−/− mice; [4],about 30%
same,M-opsin labeled-cones vs untreated controls,cones in Cngb3−/− mice; T3 30 days from P1,greatly reduced
same,S-opsin labeled-cones vs untreated controls,cones in Cngb3−/− mice; T3 30 days from P1,greatly reduced
same,"cone degeneration / cone density, in words",cones in Cngb3−/− mice; T3 30 days from P1,significantly increased; also recorded: significantly reduced; also recorded: deteriorated cones
same,cone density decrease,cones in Cngb3−/− mice; summary statement,about 40%
same,reduction of density of cones labeled by CAR vs untreated controls,cones in Gucy2e−/− mice; [4],about 30%
same,reduction of density of cones labeled by PNA vs untreated controls,cones in Gucy2e−/− mice; [4],about 30%
same,reduction of density of cones labeled by cone opsin vs untreated controls,cones in Gucy2e−/− mice; [4],about 30%
same,"cone degeneration / cone density, in words",cones in Gucy2e−/− mice; T3 30 days from P1,significantly increased; also recorded: significantly diminished cone density; also recorded: deteriorated cones
same,cone density decrease,cones in Gucy2e−/− mice; summary statement,about 40%
same,increase of serum T3 levels compared with untreated controls,[3]; Cngb3−/− mice,about 8 fold
same,increase of serum T3 levels compared with untreated controls,[3]; Gucy2e−/− mice,about 6 fold
same,concentration at 24 h,[3]; Cngb3−/− mice,3.85 ± 0.55 nM
same,concentration at 24 h,[3]; Gucy2e−/− mice,3.43 ± 0.48 nM
same,cone viability,cones,cause cone death
